# Laboratory results published in US7291649B2, “Forming germicidal aromatic dialdehydes with acetals” (Ethicon, Inc., priority 2005, dated 2007).
# Legend:
# [1] = Hydrolysis of the tetramethyl acetal of IPA to IPA in water, gas chromatography; assay type: physicochemical; conditions: pH 4.34 (HCl)
# Experimental: The process takes place in two staged reactions. In one experiment, the tetramethyl acetal of IPA (0.114 g, 0.504 mmol) was suspended in 100 mL of water including 67 mg of OPA as the internal standard. A relatively large volume of water was used due to the low solubility of IPA. The pH of the water was adjusted to 4.34 with 1% HCl. At various time intervals 0.5 mL of the reaction mixture was sampled and extracted with 1 mL of ethyl acetate (EtOAc). The samples were analyzed with gas chromatography.
# The diacetal starting material disappeared within 8 h, but hydrolysis of the second acetal group of the monoacetal took longer period of time.
# [2] = cited from earlier work
# [3] = Solubility in 30% polyethylene glycol plus water solution; assay type: physicochemical
# [4] = Hydrolysis of OPA acetals to OPA in distilled water at various pH, monitored by GC/MS; assay type: physicochemical; conditions: room temperature
# Experimental: The reactions of 1,3-dimethoxyphthalan, 1,3-diethoxyphthalan, a PEG 200 pegylated OPA acetal at various pH in distilled water were evaluated at room temperature. The acetals were suspended in distilled water, followed by pH measurement, and pH adjustment with either hydrogen chloride (HCl), phthalic acid, or sodium hydroxide (NaOH), depending on the particular pH. The mixture was stirred at room temperature and monitored by gas chromatograph/mass spectroscopy (GC/MS) at various time intervals.
# The hydrolysis rate depends upon pH. Over the range of pH investigated, the lower the pH, the faster the hydrolysis rate.
# [5] = Hydrolysis of 1,3-diethoxyphthalan in the presence of OPA in distilled water at various pH, monitored by GC/MS; assay type: physicochemical
# Experimental: The hydrolysis of 1,3-diethoxyphthalan in the presence of OPA in distilled water at various pH was evaluated at room temperature. 1,3-Diethoxyphthalan was added to the OPA solution in distilled water, followed by pH measurement and adjustment with either HCl or NaOH, depending on the pH. The mixtures were stirred at room temperature and monitored by GC/MS at various time intervals.
# [6] = pH = 6.95, NaOH adjusted, 120 h
# [7] = pH = 6.95, NaOH adjusted, 168 h
# [8] = pH = 6.95, NaOH adjusted, 240 h
# [9] = pH = 6.95, NaOH adjusted, 312 h
# [10] = pH = 6.95, NaOH adjusted, 480 h
# [11] = pH = 6.95, NaOH adjusted, 552 h
# [12] = pH = 8.9, NaOH adjusted, 1200 h
structure (smiles),measurement,setting,value
COC(OC)c1cccc(C=O)c1 [Monoacetal],Mole % in reaction mixture during hydrolysis,[1]; 8 h,79.7 Mole %
same,wt % in reaction mixture during hydrolysis,[1]; 8 h,0.091 wt %
same,Mole % in reaction mixture during hydrolysis,[1]; 32 h,33.9 Mole %
same,wt % in reaction mixture during hydrolysis,[1]; 32 h,0.039 wt %
same,Mole % in reaction mixture during hydrolysis,[1]; 54 h,0 Mole %
same,wt % in reaction mixture during hydrolysis,[1]; 54 h,0 wt %
"O=Cc1ccccc1C=O [phthalaldehyde, 1,2-benzenedicarboxaldehyde]",Solubility in water,[2],about 5 % by weight
"O=Cc1cccc(C=O)c1 [IPA, 1,3-benzenedicarboxaldehyde, reference compound]",Mole % in reaction mixture during hydrolysis,[1]; 8 h,20.3 Mole %
same,wt % in reaction mixture during hydrolysis,[1]; 8 h,0.014 wt %
same,Mole % in reaction mixture during hydrolysis,[1]; 32 h,66.1 Mole %
same,wt % in reaction mixture during hydrolysis,[1]; 32 h,0.045 wt %
same,Mole % in reaction mixture during hydrolysis,[1]; 54 h,100 Mole %
same,wt % in reaction mixture during hydrolysis,[1]; 54 h,0.068 wt %
same,Solubility,[3],less than 0.4%
"COC1OC(OC)c2ccccc21 (centres unmarked) [1,3-dimethoxyphthalan]",OPA (w/w %),"[4]; pH = 5.0 (phthalic acid), water, 0 h",0.000 w/w %
same,OPA (w/w %),"[4]; pH = 5.0 (phthalic acid), water, 24 h",0.028 w/w %
same,OPA (w/w %),"[4]; pH = 5.0 (phthalic acid), water, 120 h",0.166 w/w %
same,OPA (w/w %),"[4]; pH = 5.0 (phthalic acid), water, 240 h",0.301 w/w %
same,OPA (w/w %),"[4]; pH = 5.0 (phthalic acid), water, 360 h",0.367 w/w %
same,OPA (w/w %),"[4]; pH = 5.0 (phthalic acid), water, 480 h",0.405 w/w %
same,OPA (w/w %),"[4]; pH = 5.0 (phthalic acid), water, 576 h",0.417 w/w %
"CCOC1OC(OCC)c2ccccc21 (centres unmarked) [1,3-diethoxyphthalan]",Acetal %,"[5]; pH = 6.95, NaOH adjusted, 0 h",21.8%
same,OPA %,"[5]; pH = 6.95, NaOH adjusted, 0 h",78.2%
same,OPA (w %),"[5]; pH = 6.95, NaOH adjusted, 0 h",0.498 w %
same,Acetal %,"[5]; pH = 6.95, NaOH adjusted, 48 h",18.1%
same,OPA %,"[5]; pH = 6.95, NaOH adjusted, 48 h",81.9%
same,OPA (w %),"[5]; pH = 6.95, NaOH adjusted, 48 h",0.509 w %
same,Acetal %,[5]; [6],12.1%
same,OPA %,[5]; [6],87.9%
same,OPA (w %),[5]; [6],0.527 w %
same,Acetal %,[5]; [7],9.4%
same,OPA %,[5]; [7],90.6%
same,OPA (w %),[5]; [7],0.535 w %
same,Acetal %,[5]; [8],6.4%
same,OPA %,[5]; [8],93.6%
same,OPA (w %),[5]; [8],0.543 w %
same,Acetal %,[5]; [9],4.2%
same,OPA %,[5]; [9],95.8%
same,OPA (w %),[5]; [9],0.550 w %
same,Acetal %,[5]; [10],1.2%
same,OPA %,[5]; [10],98.8%
same,OPA (w %),[5]; [10],0.559 w %
same,Acetal %,[5]; [11],0.7%
same,OPA %,[5]; [11],99.3%
same,OPA (w %),[5]; [11],0.560 w %
same,Acetal %,"[5]; pH = 8.0, NaOH adjusted, 0 h",20.9%
same,OPA %,"[5]; pH = 8.0, NaOH adjusted, 0 h",79.1%
same,OPA (w %),"[5]; pH = 8.0, NaOH adjusted, 0 h",0.498 w %
same,Acetal %,"[5]; pH = 8.0, NaOH adjusted, 48 h",21.6%
same,OPA %,"[5]; pH = 8.0, NaOH adjusted, 48 h",78.4%
same,OPA (w %),"[5]; pH = 8.0, NaOH adjusted, 48 h",0.496 w %
same,Acetal %,"[5]; pH = 8.0, NaOH adjusted, 144 h",18.6%
same,OPA %,"[5]; pH = 8.0, NaOH adjusted, 144 h",81.4%
same,OPA (w %),"[5]; pH = 8.0, NaOH adjusted, 144 h",0.505 w %
same,Acetal %,"[5]; pH = 8.0, NaOH adjusted, 240 h",17%
same,OPA %,"[5]; pH = 8.0, NaOH adjusted, 240 h",83.0%
same,OPA (w %),"[5]; pH = 8.0, NaOH adjusted, 240 h",0.510 w %
same,Acetal %,"[5]; pH = 8.0, NaOH adjusted, 312 h",15.2%
same,OPA %,"[5]; pH = 8.0, NaOH adjusted, 312 h",84.8%
same,OPA (w %),"[5]; pH = 8.0, NaOH adjusted, 312 h",0.515 w %
same,Acetal %,"[5]; pH = 8.0, NaOH adjusted, 480 h",10.4%
same,OPA %,"[5]; pH = 8.0, NaOH adjusted, 480 h",89.6%
same,OPA (w %),"[5]; pH = 8.0, NaOH adjusted, 480 h",0.530 w %
same,Acetal %,"[5]; pH = 8.0, NaOH adjusted, 576 h",8.1%
same,OPA %,"[5]; pH = 8.0, NaOH adjusted, 576 h",91.9%
same,OPA (w %),"[5]; pH = 8.0, NaOH adjusted, 576 h",0.537 w %
same,Acetal %,"[5]; pH = 8.0, NaOH adjusted, 720 h",3.4%
same,OPA %,"[5]; pH = 8.0, NaOH adjusted, 720 h",96.6%
same,OPA (w %),"[5]; pH = 8.0, NaOH adjusted, 720 h",0.551 w %
same,Acetal %,"[5]; pH = 8.0, NaOH adjusted, 840 h",2%
same,OPA %,"[5]; pH = 8.0, NaOH adjusted, 840 h",98.0%
same,OPA (w %),"[5]; pH = 8.0, NaOH adjusted, 840 h",0.555 w %
same,Acetal %,"[5]; pH = 8.0, NaOH adjusted, 960 h",1%
same,OPA %,"[5]; pH = 8.0, NaOH adjusted, 960 h",99.0%
same,OPA (w %),"[5]; pH = 8.0, NaOH adjusted, 960 h",0.558 w %
same,Acetal %,"[5]; pH = 8.9, NaOH adjusted, 0 h",21.8%
same,OPA %,"[5]; pH = 8.9, NaOH adjusted, 0 h",78.2%
same,OPA (w %),"[5]; pH = 8.9, NaOH adjusted, 0 h",0.498 w %
same,Acetal %,"[5]; pH = 8.9, NaOH adjusted, 96 h",21.4%
same,OPA %,"[5]; pH = 8.9, NaOH adjusted, 96 h",78.6%
same,OPA (w %),"[5]; pH = 8.9, NaOH adjusted, 96 h",0.498 w %
same,Acetal %,"[5]; pH = 8.9, NaOH adjusted, 240 h",18.8%
same,OPA %,"[5]; pH = 8.9, NaOH adjusted, 240 h",81.2%
same,OPA (w %),"[5]; pH = 8.9, NaOH adjusted, 240 h",0.507 w %
same,Acetal %,"[5]; pH = 8.9, NaOH adjusted, 336 h",17.2%
same,OPA %,"[5]; pH = 8.9, NaOH adjusted, 336 h",82.8%
same,OPA (w %),"[5]; pH = 8.9, NaOH adjusted, 336 h",0.511 w %
same,Acetal %,"[5]; pH = 8.9, NaOH adjusted, 480 h",13.8%
same,OPA %,"[5]; pH = 8.9, NaOH adjusted, 480 h",86.2%
same,OPA (w %),"[5]; pH = 8.9, NaOH adjusted, 480 h",0.521 w %
same,Acetal %,"[5]; pH = 8.9, NaOH adjusted, 600 h",11.0%
same,OPA %,"[5]; pH = 8.9, NaOH adjusted, 600 h",89.0%
same,OPA (w %),"[5]; pH = 8.9, NaOH adjusted, 600 h",0.530 w %
same,Acetal %,"[5]; pH = 8.9, NaOH adjusted, 720 h",6.7%
same,OPA %,"[5]; pH = 8.9, NaOH adjusted, 720 h",93.3%
same,OPA (w %),"[5]; pH = 8.9, NaOH adjusted, 720 h",0.542 w %
same,Acetal %,"[5]; pH = 8.9, NaOH adjusted, 840 h",4.6%
same,OPA %,"[5]; pH = 8.9, NaOH adjusted, 840 h",95.4%
same,OPA (w %),"[5]; pH = 8.9, NaOH adjusted, 840 h",0.548 w %
same,Acetal %,"[5]; pH = 8.9, NaOH adjusted, 960 h",3.0%
same,OPA %,"[5]; pH = 8.9, NaOH adjusted, 960 h",97.0%
same,OPA (w %),"[5]; pH = 8.9, NaOH adjusted, 960 h",0.553 w %
same,Acetal %,[5]; [12],1.2%
same,OPA %,[5]; [12],98.8%
same,OPA (w %),[5]; [12],0.558 w %
same,Dependence of hydrolysis rate on pH,[5]; range of pH investigated,the hydrolysis rate increases with decreasing pH
same,OPA (w/w %),"[4]; pH = 5.4, HCl adjusted, water, 0 h",0.000 w/w %
same,OPA (w/w %),"[4]; pH = 5.4, HCl adjusted, water, 2 h",0.024 w/w %
same,OPA (w/w %),"[4]; pH = 5.4, HCl adjusted, water, 48 h",0.056 w/w %
same,OPA (w/w %),"[4]; pH = 5.4, HCl adjusted, water, 120 h",0.158 w/w %
same,OPA (w/w %),"[4]; pH = 5.4, HCl adjusted, water, 240 h",0.296 w/w %
same,OPA (w/w %),"[4]; pH = 5.4, HCl adjusted, water, 360 h",0.525 w/w %
same,OPA (w/w %),"[4]; pH = 5.4, HCl adjusted, water, 480 h",0.596 w/w %
same,OPA (w/w %),"[4]; pH = 6.9, water, 0 h",0.000 w/w %
same,OPA (w/w %),"[4]; pH = 6.9, water, 1 h",0.000 w/w %
same,OPA (w/w %),"[4]; pH = 6.9, water, 20 h",0.010 w/w %
same,OPA (w/w %),"[4]; pH = 6.9, water, 144 h",0.097 w/w %
same,OPA (w/w %),"[4]; pH = 6.9, water, 240 h",0.204 w/w %
same,OPA (w/w %),"[4]; pH = 6.9, water, 359 h",0.419 w/w %
same,OPA (w/w %),"[4]; pH = 6.9, water, 480 h",0.476 w/w %
same,OPA (w/w %),"[4]; pH = 10.8, NaOH adjusted, water, 48 h",0.0048 w/w %
same,OPA (w/w %),"[4]; pH = 10.8, NaOH adjusted, water, 120 h",0.0062 w/w %
same,OPA (w/w %),"[4]; pH = 10.8, NaOH adjusted, water, 480 h",0.0473 w/w %
same,OPA (w/w %),"[4]; pH = 10.8, NaOH adjusted, water, 720 h",0.112 w/w %
same,OPA (w/w %),"[4]; pH = 10.8, NaOH adjusted, water, 960 h",0.229 w/w %
